Measured values reported in patent US5510247A, “Centrifugal multiphase systems and method for using the same” (University of Pittsburgh, priority 1993, dated 1996).

Columns and labels:
phosphotriesterase [1] = molecular target: T1, phosphotriesterase (Brevundimonas diminuta, UniProt P0A434); assay: Batch Michaelis-Menten kinetics of phosphotriesterase with pesticide substrates in Tween 85 reversed micelles and in Tris-HCl buffer; assay type: biochemical; set-up: made in house
Method: Solutions of micelles were prepared in the following manner: 8 ml isopropanol was added to 13 g Tween 85 and Hexane was added to achieve a mixture of 50 ml. Water or Tris-HCl buffer (0.05M, pH 7.0) and hexane were added to this mixture to yield the desired system. […] Appropriate volumes were mixed to fill 1 ml quartz cuvettes, and the reaction was followed in a spectrophotometer. (Perkin Elmer Lambda 3). Michaelis-Menten kinetic constants (discussed below) were found by non-linear regression analysis of the initial rate data.
Enzymes function as catalysts in solution by lowering the free energy of the transition state in a reaction. Like conventional catalysts, the enzyme facilitates the reaction, but is in no way altered, so that when the reaction is completed, it is available to catalyze the conversion of more substrate molecules. When a single substrate is converted to product, the schematic of the reaction can be written [drawing 2] where S and P are substrate and product, respectively, and ES is an enzyme substrate complex. When the substrate concentration is much higher than the enzyme concentration, the enzyme is said to obey the Michaelis-Menten relationship describing the reaction rate, [formula] where (E) is the total enzyme concentration and (S) is the initial substrate concentration. KM is the saturation constant, and is a function of the individual rate constants, [formula] KM has the physical meaning as the substrate concentration which yields half the maximal reaction rate (Vmax), which is dependent on the catalytic rate constant of the chemcial step, k2, as well as the enzyme concentration,
Initial experiments were performed using paraoxon, parathion and methyl paraoxon. The effect of micelle size, pH, ionic strength and temperature have been investigated.

phosphotriesterase [2] = molecular target: T1, phosphotriesterase; assay: Enzyme activity for paraoxon degradation and enzyme partitioning in the two-phase organic/reverse micelle system (Tween rich heavy phase, excess hexane phase); assay type: biochemical; set-up: made in house; conditions: Tween rich heavy phase of the organic/reverse micelle two-phase system
Text: As set forth above, if the products of the reaction are more soluble in the organic phase than in an aqueous phase, it is preferable to choose a system with an excess of organic phase to facilitate product removal. Such a region can be found, for example, in FIG. 2C in the lower left hand corner of the phase diagram. This region is illustrated in FIG. 12 as the shaded area.
In this region, close to the single phase region, reverse micelles form with an excess hexane phase which has a low concentration (<15 mM) of Tween with adsorbed water.

phosphotriesterase [3] = molecular target: T1, phosphotriesterase
[4] = Tris-HCl buffer, 10% Methanol added to enhance solubility

Work on `COP(=O)(OC)Oc1ccc([N+](=O)[O-])cc1` [METHYL PARAOXON, methyl paraoxon] yielded a Km (phosphotriesterase [1]; Tris-HCl buffer) of 0.146 mM, a Vmax (phosphotriesterase [1]; Tris-HCl buffer) of 2293 µmol/mg/min and a kcat (phosphotriesterase [1]; Tris-HCl buffer) of 1509 s⁻¹. For the same compound, the “kcat /KM” value (phosphotriesterase [1]; Tris-HCl buffer) was 10,340 mM^-1 s^-1, the Km (phosphotriesterase [1]; micelles, Wo 5.5) was 17.2 ± 3.2 mM and the Vmax (phosphotriesterase [1]; micelles, Wo 5.5) was 26.5 ± 2.8 µmol/mg/min. The kcat (phosphotriesterase [1]; micelles, Wo 5.5) was 17 s⁻¹, the “kcat /KM” value (phosphotriesterase [1]; micelles, Wo 5.5) was 1.0 mM⁻¹ s⁻¹ and the Km (phosphotriesterase [1]; micelles, Wo 28) was 15.6 ± 2 mM. The Vmax (phosphotriesterase [1]; micelles, Wo 28) was 43.2 ± 2.4 µmol/mg/min, the kcat (phosphotriesterase [1]; micelles, Wo 28) was 28 s⁻¹ and the “kcat /KM” value (phosphotriesterase [1]; micelles, Wo 28) was 1.182 mM⁻¹ s⁻¹. It also gave a Km (phosphotriesterase [1]; micelles, Wo 46) of 15.3 ± 1.9 mM, a Vmax (phosphotriesterase [1]; micelles, Wo 46) of 53.1 ± 3.0 µmol/mg/min and a kcat (phosphotriesterase [1]; micelles, Wo 46) of 35 s⁻¹. The “kcat /KM” value (phosphotriesterase [1]; micelles, Wo 46) was 2.28 mM⁻¹ s⁻¹, the Km (phosphotriesterase [1]; micelles, Wo 66) was 37.2 ± 11 mM and the Vmax (phosphotriesterase [1]; micelles, Wo 66) was 192 ± 37 µmol/mg/min. The kcat (phosphotriesterase [1]; micelles, Wo 66) was 126 s⁻¹, the “kcat /KM” value (phosphotriesterase [1]; micelles, Wo 66) was 3.35 mM⁻¹ s⁻¹ and the Km (phosphotriesterase [1]; micelles, Wo 82) was 32.9 ± 8.9 mM. The Vmax (phosphotriesterase [1]; micelles, Wo 82) was 225 ± 38 µmol/mg/min, the kcat (phosphotriesterase [1]; micelles, Wo 82) was 148 s⁻¹ and the “kcat /KM” value (phosphotriesterase [1]; micelles, Wo 82) was 4.5 mM⁻¹ s⁻¹. For the same compound, the Km (phosphotriesterase [1]; micelles, Wo 122) was 50 ± 19 mM, the Vmax (phosphotriesterase [1]; micelles, Wo 122) was 397 ± 111 µmol/mg/min and the kcat (phosphotriesterase [1]; micelles, Wo 122) was 261 s⁻¹. The “kcat /KM” value (phosphotriesterase [1]; micelles, Wo 122) was 5.2 mM⁻¹ s⁻¹.

In the case of `CCOP(=O)(OCC)Oc1ccc([N+](=O)[O-])cc1` [PARAOXON, Paraoxon], the Vmax (phosphotriesterase [1]; Tris-HCl buffer) is reported as 1.686 ± 42 µmol/mg/min, the kcat (phosphotriesterase [1]; Tris-HCl buffer) is reported as 1,110 ± 28 s^-1 and the “kcat /KM” value (phosphotriesterase [1]; Tris-HCl buffer) is reported as 58,421 mM^-1 s^-1. For the same compound, the Km (phosphotriesterase [1]; micelles, Wo 6.9) was 14.3 ± 3.4 mM, the Vmax (phosphotriesterase [1]; micelles, Wo 6.9) was 107 ± 12 µmol/mg/min and the kcat (phosphotriesterase [1]; micelles, Wo 6.9) was 70.3 ± 7.9 s⁻¹. For the same compound, the “kcat /KM” value (phosphotriesterase [1]; micelles, Wo 6.9) was 4.9 mM⁻¹ s⁻¹, the Km (phosphotriesterase [1]; micelles, Wo 30) was 28.9 ± 3.8 mM and the Vmax (phosphotriesterase [1]; micelles, Wo 30) was 430 ± 28 µmol/mg/min. For the same compound, the kcat (phosphotriesterase [1]; micelles, Wo 30) was 283 ± 18.4 s⁻¹, the “kcat /KM” value (phosphotriesterase [1]; micelles, Wo 30) was 9.8 mM⁻¹ s⁻¹ and the Km (phosphotriesterase [1]; micelles, Wo 45) was 31.2 ± 8.2 mM. The Vmax (phosphotriesterase [1]; micelles, Wo 45) was 556 ± 80 µmol/mg/min, the kcat (phosphotriesterase [1]; micelles, Wo 45) was 366 ± 53 s⁻¹ and the “kcat /KM” value (phosphotriesterase [1]; micelles, Wo 45) was 11.8 mM⁻¹ s⁻¹. It also gave a Km (phosphotriesterase [1]; micelles, Wo 69) of 34.8 ± 9 mM, a Vmax (phosphotriesterase [1]; micelles, Wo 69) of 992 ± 149 µmol/mg/min and a kcat (phosphotriesterase [1]; micelles, Wo 69) of 653 ± 98 s⁻¹. The “kcat /KM” value (phosphotriesterase [1]; micelles, Wo 69) was 18.8 mM⁻¹ s⁻¹, the Km (phosphotriesterase [1]; micelles, Wo 86) was 33.3 ± 6.7 mM and the kcat (phosphotriesterase [1]; micelles, Wo 86) was 789 ± 86 s⁻¹. The “kcat /KM” value (phosphotriesterase [1]; micelles, Wo 86) was 23.7 mM⁻¹ s⁻¹, the Km (phosphotriesterase [1]; micelles, Wo 125) was 29.5 ± 8.3 mM and the Vmax (phosphotriesterase [1]; micelles, Wo 125) was 1.753 ± 259 µmol/mg/min. The kcat (phosphotriesterase [1]; micelles, Wo 125) was 1150 ± 170 s⁻¹, the “kcat /KM” value (phosphotriesterase [1]; micelles, Wo 125) was 39.1 mM⁻¹ s⁻¹ and the Km (phosphotriesterase [2]) was 32 mM. It also gave a kcat (phosphotriesterase [2]) of 975 s⁻¹.

For `CCOP(=S)(OCC)Oc1ccc([N+](=O)[O-])cc1` [PARATHION, Parathion], the Km (phosphotriesterase [1]; [4]) was 0.35 ± 0.08 mM, the Vmax (phosphotriesterase [1]; [4]) was 2850 ± 540 µmol/mg/min and the kcat (phosphotriesterase [1]; [4]) was 1870 ± 360 s⁻¹. The “kcat /KM” value (phosphotriesterase [1]; [4]) was 5,340 mM^-1 s^-1, the Km (phosphotriesterase [1]; micelles, Wo 6) was 81 ± 16 mM and the Vmax (phosphotriesterase [1]; micelles, Wo 6) was 1.37 ± 0.15 µmol/mg/min. The kcat (phosphotriesterase [1]; micelles, Wo 6) was 0.90 ± 0.10 s⁻¹, the “kcat /KM” value (phosphotriesterase [1]; micelles, Wo 6) was 0.011 mM⁻¹ s⁻¹ and the Vmax (phosphotriesterase [1]; micelles, Wo 29) was 9.7 ± 1.4 µmol/mg/min. The kcat (phosphotriesterase [1]; micelles, Wo 29) was 6.4 ± 0.9 s⁻¹, the “kcat /KM” value (phosphotriesterase [1]; micelles, Wo 29) was 0.054 mM⁻¹ s⁻¹ and the Vmax (phosphotriesterase [1]; micelles, Wo 45) was 14.7 ± 2.4 µmol/mg/min. The kcat (phosphotriesterase [1]; micelles, Wo 45) was 9.7 ± 1.6 s⁻¹, the “kcat /KM” value (phosphotriesterase [1]; micelles, Wo 45) was 0.074 mM⁻¹ s⁻¹ and the Vmax (phosphotriesterase [1]; micelles, Wo 70) was 28 ± 17 µmol/mg/min. For the same compound, the kcat (phosphotriesterase [1]; micelles, Wo 70) was 18 ± 11 s⁻¹, the “kcat /KM” value (phosphotriesterase [1]; micelles, Wo 70) was 0.082 mM⁻¹ s⁻¹ and the Vmax (phosphotriesterase [1]; micelles, Wo 85) was 52 ± 28 µmol/mg/min. The kcat (phosphotriesterase [1]; micelles, Wo 85) was 34 ± 18 s⁻¹ and the “kcat /KM” value (phosphotriesterase [1]; micelles, Wo 85) was 0.082 mM⁻¹ s⁻¹.

`OCCO` [ethylene glycol] was tested, and the “effect on enzyme activity” value (phosphotriesterase [3]; micelles prepared with it as a cosurfactant) was “enhanced enzyme activity”.

For `CC(C)O` [isopropanol], the “effect on activity of phosphotriesterase” value (phosphotriesterase [3]; in buffer) was “reduce the activity”.
